Results: article PMC4450297, “Screening Active Compounds from Garcinia Species Native to China Reveals Novel Compounds Targeting the STAT/JAK Signaling Pathway” (BioMed Research International, 2015)

Experiments:
Assay in all cases: Cell panel screen (CellTiter-Glo)
Type in all cases: cell-based, human
NCI-H1623 = NCI-H1623 (Lung), 20 micromolar, 72 hrs
Experimental: (§1) All cells were obtained from the cell bank of the American Type Culture Collection (ATCC) and cultured in the supplier's recommended media supplemented with 10% FBS. The cell panel screen was measured using the CellTiter-Glo assay (Promega, Madison, WI) following a standard protocol. Briefly, cancer cells were seeded in 96-well plates and cultured overnight at 37°C with or without 5% CO2 in an incubator. Each compound was dissolved with limited DMSO and diluted to a certain concentration with culture medium and then added to the corresponding well of the cell plate. The final concentration of compound was 20 μM. The control cells (without treatment) received the same amount of DMSO and were incubated under the same conditions. After 72 h cultivation, 100 μL of the CellTiter-Glo reagent was added directly to each well for 10-minute incubation. The plate was then read on a FlexStation 3 microplate luminometer (Molecular Devices, USA) to monitor the luminescence signal generated by the luciferase-catalyzed reaction of luciferin and ATP. The percent of growth inhibition was calculated using the following formula: (untreated cells − treated cells)/(untreated cells − background without cells) ∗ 100.

NCI-H524 = NCI-H524 (Lung), 20 micromolar, 72 hrs
Experimental: as §1

ChaGo-K-1 = ChaGo-K-1 (Lung), 20 micromolar, 72 hrs
Experimental: as §1

HCC1395 = HCC1395 (Breast), 20 micromolar, 72 hrs
Experimental: as §1

CCF-STTG1 = CCF-STTG1 (Brain), 20 micromolar, 72 hrs
Experimental: as §1

SW13 = SW13 (Adrenal gland), 20 micromolar, 72 hrs
Experimental: as §1

NCI-H1770 = NCI-H1770 (Lung), 20 micromolar, 72 hrs
Experimental: as §1

HGC-27 = HGC-27 (Stomach), 20 micromolar, 72 hrs
Experimental: as §1

M059J = M059J (Brain), 20 micromolar, 72 hrs
Experimental: as §1

T98G = T98G (Brain), 20 micromolar, 72 hrs
Experimental: as §1

CW-2 = CW-2 (Colon), 20 micromolar, 72 hrs
Experimental: as §1

Panc 03.27 = Panc 03.27 (Pancreas), 20 micromolar, 72 hrs
Experimental: as §1

J82 = J82 (Urinary bladder), 20 micromolar, 72 hrs
Experimental: as §1

HCC1569 = HCC1569 (Breast), 20 micromolar, 72 hrs
Experimental: as §1

NCI-H2405 = NCI-H2405 (Lung), 20 micromolar, 72 hrs
Experimental: as §1

BT-549 = BT-549 (Breast), 20 micromolar, 72 hrs
Experimental: as §1

C8166 = C8166 (Leukemia), 20 micromolar, 72 hrs
Experimental: as §1

Colo 205 = conditions: Colo 205, 20 micromolar, 72 hrs
Experimental: as §1

NCI-H1694 = NCI-H1694 (Lung), 20 micromolar, 72 hrs
Experimental: as §1

C3A = C3A (Liver), 20 micromolar, 72 hrs
Experimental: as §1

MSTO-211-H = MSTO-211-H (Lung), 20 micromolar, 72 hrs
Experimental: as §1

HEC-1-A = HEC-1-A (Uterus), 20 micromolar, 72 hrs
Experimental: as §1

NCI-H2347 = NCI-H2347 (Lung), 20 micromolar, 72 hrs
Experimental: as §1

NCI-H28 = NCI-H28 (Lung), 20 micromolar, 72 hrs
Experimental: as §1

A704 = A704 (Kidney), 20 micromolar, 72 hrs
Experimental: as §1

BT-474 = BT-474 (Breast), 20 micromolar, 72 hrs
Experimental: as §1

Bel-7402 = Bel-7402 (Liver), 20 micromolar, 72 hrs
Experimental: as §1

A498 = A498 (listed under Lung), 20 micromolar, 72 hrs
Experimental: as §1

HCC1937 = HCC1937 (Breast), 20 micromolar, 72 hrs
Experimental: as §1

TCCSUP = TCCSUP (Urinary bladder), 20 micromolar, 72 hrs
Experimental: as §1

ZR-75-30 = ZR-75-30 (Breast), 20 micromolar, 72 hrs
Experimental: as §1

RL95 = RL95 (Uterus), 20 micromolar, 72 hrs
Experimental: as §1

HPAF-II = HPAF-II (Pancreas), 20 micromolar, 72 hrs
Experimental: as §1

T47D = T47D (Breast), 20 micromolar, 72 hrs
Experimental: as §1

HCC1599 = HCC1599 (Breast), 20 micromolar, 72 hrs
Experimental: as §1

HT-1197 = HT-1197 (Urinary bladder), 20 micromolar, 72 hrs
Experimental: as §1

Structure (SMILES)	Percent Inhibition (NCI-H1623) [%]	Percent Inhibition (NCI-H524) [%]	Percent Inhibition (ChaGo-K-1) [%]	Percent Inhibition (HCC1395) [%]	Percent Inhibition (CCF-STTG1) [%]	Percent Inhibition (SW13) [%]	Percent Inhibition (NCI-H1770) [%]	Percent Inhibition (HGC-27) [%]	Percent Inhibition (M059J) [%]	Percent Inhibition (T98G) [%]	Percent Inhibition (CW-2) [%]	Percent Inhibition (Panc 03.27) [%]	Percent Inhibition (J82) [%]	Percent Inhibition (HCC1569) [%]	Percent Inhibition (NCI-H2405) [%]	Percent Inhibition (BT-549) [%]	Percent Inhibition (C8166) [%]	Percent Inhibition (Colo 205) [%]	Percent Inhibition (NCI-H1694) [%]	Percent Inhibition (C3A) [%]	also measured
CC(C)=CCc1c(O)cc2oc3cc(O)c(O)c(CC=C(C)C)c3c(=O)c2c1O [Ge9]	91	97	97	98	99	-3	98	97	-17	98	99	97	97	97	96	97	99	98	99	81	Percent Inhibition (MSTO-211-H): 98%; Percent Inhibition (HEC-1-A): 95%; Percent Inhibition (NCI-H2347): 89%; Percent Inhibition (NCI-H28): 97%; Percent Inhibition (A704): 96%; Percent Inhibition (BT-474): 97%; Percent Inhibition (Bel-7402): 99%; Percent Inhibition (A498): 98%; Percent Inhibition (HCC1937): 98%; Percent Inhibition (TCCSUP): 99%; Percent Inhibition (ZR-75-30): 99%; Percent Inhibition (RL95): 98%; Percent Inhibition (HPAF-II): 96%; Percent Inhibition (T47D): 94%; Percent Inhibition (HCC1599): 95%; Percent Inhibition (HT-1197): 97%
O=c1c2cc(O)c(O)cc2oc2cc(O)cc(O)c12 [Ge-17]	2	47	22	38	15	8	72	55	63	54	25	20	47	16	-5	40	62	3	99	33	Percent Inhibition (MSTO-211-H): 74%; Percent Inhibition (HEC-1-A): 51%; Percent Inhibition (NCI-H2347): 4%; Percent Inhibition (NCI-H28): 9%; Percent Inhibition (A704): 1%; Percent Inhibition (BT-474): -7%; Percent Inhibition (Bel-7402): 7%; Percent Inhibition (A498): 41%; Percent Inhibition (HCC1937): 65%; Percent Inhibition (TCCSUP): 61%; Percent Inhibition (ZR-75-30): 6%; Percent Inhibition (RL95): 53%; Percent Inhibition (HPAF-II): 13%; Percent Inhibition (T47D): 48%; Percent Inhibition (HCC1599): 79%; Percent Inhibition (HT-1197): 16%
CC(C)=CCC/C(C)=C/Cc1c(O)c(CC=C(C)C)c2c(c1O)C(=O)C1=C[C@@H]3C[C@H]4C(C)(C)O[C@@](C/C=C(/C)C(=O)O)(C3=O)[C@@]14O2 [GB16]	99	98	99	99	99	99	100	100	99	99	99	99	99	99	99	99	100	99	100	99	Percent Inhibition (MSTO-211-H): 100%; Percent Inhibition (HEC-1-A): 99%; Percent Inhibition (NCI-H2347): 98%; Percent Inhibition (NCI-H28): 99%; Percent Inhibition (A704): 99%; Percent Inhibition (BT-474): 99%; Percent Inhibition (Bel-7402): 99%; Percent Inhibition (A498): 100%; Percent Inhibition (HCC1937): 100%; Percent Inhibition (TCCSUP): 100%; Percent Inhibition (ZR-75-30): 100%; Percent Inhibition (RL95): 99%; Percent Inhibition (HPAF-II): 98%; Percent Inhibition (T47D): 99%; Percent Inhibition (HCC1599): 100%; Percent Inhibition (HT-1197): 99%
CC(C)=CCC[C@@]1(C)C=Cc2c(O)c3c(c(CC=C(C)C)c2O1)O[C@]12C(=C[C@@H]4C[C@H]1C(C)(C)O[C@@]2(C/C=C(/C)C(=O)O)C4=O)C3=O [GB11]	98	97	98	98	98	98	98	98	98	99	98	99	98	99	98	99	99	98	99	98	Percent Inhibition (MSTO-211-H): 98%; Percent Inhibition (HEC-1-A): 99%; Percent Inhibition (NCI-H2347): 98%; Percent Inhibition (NCI-H28): 99%; Percent Inhibition (A704): 98%; Percent Inhibition (BT-474): 98%; Percent Inhibition (Bel-7402): 98%; Percent Inhibition (A498): 98%; Percent Inhibition (HCC1937): 98%; Percent Inhibition (TCCSUP): 99%; Percent Inhibition (ZR-75-30): 99%; Percent Inhibition (RL95): 99%; Percent Inhibition (HPAF-II): 98%; Percent Inhibition (T47D): 99%; Percent Inhibition (HCC1599): 99%; Percent Inhibition (HT-1197): 98%
